Test results published in patent US20240342152A1, “Method of Treatment” (Vanda Pharmaceuticals Inc., priority 2022, published 2024).

Legend:
[1] = test system: patients with bipolar I disorder; test: Phase III clinical study of iloperidone in acute manic and mixed episodes associated with bipolar I disorder; format: in vivo, adults
Protocol: In a Phase III clinical study of iloperidone as a treatment of acute manic and mixed episodes associated with bipolar I disorder, approximately 400 volunteers with a history of bipolar disorder and suffering from a current episode of mania are randomized to receive either iloperidone or placebo in a 1:1 ratio. Treatment efficacy is assessed using the Young Mania Rating Scale (YMRS), a known rating scale of clinical severity in the core symptoms of mania, as well as the Clinician Global Impression of Severity (CGI-S) and the Clinician Global Impression of Change (CGI-C).
YMRS assessments are made at baseline and during days 7, 10, 14, 21, and 28 using the following key: • 0=reports no decrease in sleep; • 1=sleeping less than normal amount by up to one hour; • 2=sleeping less than normal by more than one hour; • 3=reports decreased need for sleep; and • 4=denies need for sleep.
Patients receive four weeks of double-blind treatment comprising the administration of 24 mg/d iloperidone b.i.d. (12 mg twice daily), 12 mg/d b.i.d. (6 mg twice daily) for poor metabolizers, or placebo. CYP2D6 non-poor metabolizers are titrated to a clinical dose of 24 mg/day (12 mg twice daily) by administering 1 mg twice per day on day 1, 3 mg twice per day on day 2, 6 mg twice per day on day 3, 9 mg twice per day on day 4, and 12 mg twice per day on day 5 and each day thereafter. CYP2D6 poor metabolizers are titrated to 12 mg/day (6 mg twice daily) by administering 1 mg twice per day on day 1, 3 mg twice per day on day 2, and 6 mg twice per day on day 3 and each day thereafter.

[2] = test system: adults with schizophrenia or bipolar I disorder; test: Clinical study of tolerability of faster iloperidone titration (orthostatic hypotension monitoring); format: in vivo; conditions: n=12
Protocol: A clinical study of adults (n=12, age 18-65, inclusive) with schizophrenia or bipolar I disorder is conducted to assess the tolerability of a faster iloperidone titration scheme. Patients are assigned to one of two cohorts based on CYP2D6 phenotype.
CYP2D6 non-poor metabolizers are titrated to a clinical dose of 24 mg/day (12 mg twice daily) by administering 1 mg twice per day on day 1, 3 mg twice per day on day 2, 6 mg twice per day on day 3, 9 mg twice per day on day 4, and 12 mg twice per day on day 5. CYP2D6 poor metabolizers are titrated to 12 mg/day (6 mg twice daily) by administering 1 mg twice per day on day 1, 3 mg twice per day on day 2, and 6 mg twice per day on day 3. In each case, the target dose of 24 mg/day or 12 mg/day is continued until day 7.
Patients are monitored for OH by measuring blood pressure after lying supine for three minutes and two minutes after standing. OH is defined as a fall in systolic blood pressure of 20 mmHg or more or a fall in diastolic blood pressure of 10 mmHg or more.
The results are compared to historical placebo data from a prior study of the FDA-approved titration regimen.

[3] = test system: patients with schizophrenia; conditions: patients continuing on therapy past the titration period; cited from earlier work
[4] = endpoint (day 28), ITT population, N = 198

With COc1cc(C(C)=O)ccc1OCCCN1CCC(c2noc3cc(F)ccc23)CC1 [Iloperidone, 1-[4-[3-[4-(6-fluoro-1,2-benzisoxazol-3-yl)-1-piperidinyl]propoxy]-3-methoxyphenyl]ethanone] as the molecule, how does the “Sedation reported as treatment-emergent adverse event” value ([1]; N = 206) read?
Its value is 5 (2.4) n (%).

And the “Somnolence reported as treatment-emergent adverse event” value ([1]; N = 206)?
The value was 11 (5.3) n (%).

And the “Onset of statistically significant YMRS benefit versus placebo” value ([1]; YMRS assessment)?
Its value is “as early as the end of week 2”.

And the “YMRS Total Score, Diff (iloperidone vs placebo)” value ([1]; day 28, ITT population, p-value 0.000008)?
The value was −4.0.

And the “CGI-C, Diff (iloperidone vs placebo)” value ([1]; day 28, ITT population, p-value 0.0002)?
The value was −0.5.

And the “CGI-S, Diff (iloperidone vs placebo)” value ([1]; day 28, ITT population, p-value 0.0005)?
Its value is −0.4.

And the “MADRS Total Score, Diff (iloperidone vs placebo)” value ([1]; day 28, ITT population, p-value 0.1365)?
The value was −0.9.

What about the CGI-C [1, 4] of the same molecule?
Its CGI-C is 2.3.

And the “CGI-S, change from baseline” value [1, 4]?
The value was −1.5.

And the “MADRS Total Score, change from baseline” value [1, 4]?
The value was −2.7.

What about the “YMRS Total Score, change from baseline” value ([1]; endpoint (day 28), ITT population, N = 198, 24 mg/d b.i.d. (12 mg/d for CYP2D6 poor metabolizers)) of the same molecule?
The value was −14.0.

What about the “YMRS change associated with SNP rs62300864 (SHROOM3)” value ([1]; iloperidone-treated group (n=167), p 1.64 × 10^−6) of the same molecule?
Its value is 12.08 ± 2.43.

What about the “YMRS change associated with SNP rs55837573 (RELN)” value ([1]; iloperidone-treated group (n=167), p 2.48 × 10^−6) of the same molecule?
The value was −4.61 ± 0.94.

What about the “YMRS change associated with SNP rs76876307 (FAT3)” value ([1]; iloperidone-treated group (n=167), p 5.27 × 10^−6) of the same molecule?
The value was 15.44 ± 3.28.

And the “YMRS change associated with SNP rs1118464 (NAV2)” value ([1]; iloperidone-treated group (n=167), p 6.98 × 10^−6)?
The value was −4.15 ± 0.89.

What about the “YMRS sleep component, least squares mean change from baseline to day 28” value ([1]; placebo −0.95, p=0.008) of the same molecule?
The value was −1.26.

And the “Tolerability of faster titration” value ([2]; compared to historical placebo data)?
Its value is “well-tolerated”.

And the “Patients meeting orthostatic hypotension (OH) criteria” value ([2]; faster titration to 24 mg/day (12 mg/day poor metabolizers), to day 7, OH = fall in systolic ≥20 mmHg or diastolic ≥10 mmHg)?
The value was “Only one patient receiving iloperidone met the OH criteria”.

What about the “Incidents of dizziness, syncope, or accidental trauma” value ([2]; faster titration, to day 7) of the same molecule?
The value was “no reported incidents of dizziness, syncope, or accidental trauma”.

What about the Other adverse events ([2]; faster titration, to day 7) of the same molecule?
Its Other adverse events is “no other adverse events”.

And the “Efficacy in treating schizophrenia relative to haloperidol and risperidone” value [3]?
Its value is “comparable to that of haloperidol and risperidone”.
